# In patent publication US8846912B2, “Tartrate salts of quinazoline based EGFR inhibitors containing a zinc binding moiety” (Curis, Inc., priority 2007, dated 2014):
# Where a name gives a salt, the structure may show the parent alone. Read-outs that look alike come from different tables or passages of the source.
# What was measured:
# HDAC = HDAC fluorimetric enzyme assay (HeLa nuclear extract); assay type: biochemical
# Method: HDAC inhibitors were screened using an HDAC fluorimetric assay kit (AK-500, Biomol, Plymouth Meeting, Pa.).
# Each assay was setup as follows: Defrosted all kit components and kept on ice until use. […] Prepared dilutions of Trichostatin A (TSA, positive control) and tested compounds in assay buffer (5× of final concentration). Diluted Fluor de Lys™ Substrate in assay buffer to 100 uM (50 fold=2× final). Diluted Fluor de Lys™ developer concentrate 20-fold (e.g. 50 μl plus 950 μl Assay Buffer) in cold assay buffer. Second, diluted the 0.2 mM Trichostatin A 100-fold in the 1× Developer (e.g. 10 μl in 1 ml; final Trichostatin A concentration in the 1× Developer=2 μM; final concentration after addition to HDAC/Substrate reaction=1 μM). Added Assay buffer, diluted trichostatin A or test inhibitor to appropriate wells of the microtiter plate. Added diluted HeLa extract or other HDAC sample to all wells except for negative controls.
# [1] = target: T1, human EGFR(His672-Ala1210) (Homo sapiens, UniProt P00533); assay: EGFR kinase assay (HTScan EGF Receptor Kinase Assay Kit); assay type: biochemical; conditions: FIG. 1
# T1 construct: a construct expressing human EGFR(His672-Ala1210); GST (N); purchased Cell Signaling Technologies; host or cells: baculovirus expression system
# Method: The ability of compounds to inhibit receptor kinase (EGFR) activity was assayed using HTScan™ EGF Receptor Kinase Assay Kits (Cell Signaling Technologies, Danvers, Mass.). […] The protein was purified by one-step affinity chromatography using glutathione-agarose.
# Immediately transfer enzyme from −80° C. to ice. Allowed enzyme to thaw on ice. […] Returned immediately to ice. […] Incubated reaction plate at room temperature for 30 minutes. […] Added 100 μl/well primary antibody. Incubated at room temperature for 60 minutes. […] Added 100 μl/well diluted antibody. Incubated at room temperature for 30 minutes. […] Incubated at room temperature for 5 minutes.
# Caki-1 Renal carcinoma = assay: Cell proliferation assay (ATPlite); assay type: cell-based; conditions: Homo sapiens; Caki-1, Renal carcinoma (Table D); read-out: IC50 in cancer cell line
# Method: (§1) Cell Proliferation Assay:
# (§2) Cancer cell lines were plated at 5,000 to 10,000 per well in 96-well flatted bottomed plates with various concentration of compounds. […] Growth inhibition was accessed by adenosine triphosphate (ATP) content assay using Perkin Elmer ATPlite kit. ATPlite is an ATP monitoring system based on firefly luciferase. Briefly, 25 μl of mammalian cell lysis solution was added to 50 μl of phenol red-free culture medium per well to lyse the cells and stabilize the ATP. 25 μl of substrate solution was then added to the well and subsequently the luminescence was measured.
# [2] = system: colon and breast cancer cells (HCT-116, SKBr3); assay: Induction of apoptosis (Caspase 3&7 activity); assay type: cell-based; conditions: HCT-116 and SKBr3, 24 hours; FIG. 4
# [3] = system: HDAC in MDA-MB-468 breast cancer cell line; assay: Histone acetylation (Ac-H4, Ac-H3 accumulation) in cells; assay type: cell-based; conditions: FIG. 2
# Description: (§3) FIG. 2 illustrates inhibition of HDAC and EGFR in MDA-MB-468 breast cancer cell line: (a) Ac-H4 Accumulation, (b) Ac-H3 Accumulation, (c) EGFR inhibition.
# [4] = system: EGFR in MDA-MB-468 breast cancer cell line; assay: EGFR phosphorylation in cells; assay type: cell-based; conditions: FIG. 2
# Description: as §3
# [5] = system: various cancer cell lines; assay: Cell proliferation assay, various cancer cell lines; assay type: cell-based; conditions: Table D, FIG. 3
# Method: as §1
# Cancer cell lines were plated at 5,000 to 10,000 per well in 96-well flatted bottomed plates with various concentration of compounds. The cells were incubated with compounds for 72 hours in the presence of 0.5% of fetal bovine serum. Growth inhibition was accessed by adenosine triphosphate (ATP) content assay using Perkin Elmer ATPlite kit. ATPlite is an ATP monitoring system based on firefly luciferase. Briefly, 25 μl of mammalian cell lysis solution was added to 50 μl of phenol red-free culture medium per well to lyse the cells and stabilize the ATP. 25 μl of substrate solution was then added to the well and subsequently the luminescence was measured.
# [6] = Dilution study with D5W (precipitation, chemical stability); assay type: physicochemical; conditions: for Dilution with D5W: salt in 30% CAPTISOL; for Chemical stability in diluted solution: salt in 30% CAPTISOL diluted with D5W
# [7] = Stability of CAPTISOL solution at room temperature; assay type: physicochemical; conditions: 25 mg/ml compound 12 with 8.6 mg tartaric acid in 30% CAPTISOL
# [8] = Pharmacokinetic study of compound 12 formulation in mice (iv, ip); assay type: in vivo; conditions: hydrochloride salt
# [9] = Pharmacokinetic study of compound 12 formulation in rats; assay type: in vivo; conditions: hydrochloride salt in 30% CAPTISOL, 20 and 60 mg/kg iv, FIG. 14
# Method: (§4) Compound was administered via an intravenous (iv) infusion.
# Rat: 20 mg/kg for 5 min i.v. infusion
# (§5) Plasma samples were prepared by protein precipitation. An internal standard was added into plasma samples. […] The supernatant was then injected onto LC/MS/MS.
# (§6) Samples were compared to standards made in plasma. These standards were prepared by serial dilution.
# [10] = Pharmacokinetic study of compound 12 in dogs; assay type: in vivo; conditions: 25 mg/kg tartrate salt in 30% CAPTISOL, FIG. 19
# Method: as §4
# Beagle: 25 mg/kg for 30 min i.v. infusion
# as §5, §6
# A549 NSCLC Xenograft = assay: A549 NSCLC xenograft model; assay type: in vivo; conditions: FIG. 11A, 11B
# [11] = system: HPAC pancreatic cancer cells; assay: HPAC pancreatic cancer tumor model; assay type: in vivo; conditions: 120 mg/kg in 30% CAPTISOL (iv/ip) daily; FIG. 12A
# [12] = male, CD-1, mouse, in vivo, iv, 9 days
# Method: Single dosing MTD in mice • a. CD-1 mice, male, 24-26 gram • b. Dosing at 0, 50, 100, 200, 400 mg/kg, iv infusion 2 min • c. 8 mice per group
# (§7) Stock solution is diluted with 30% CAPTISOL® before use.
# [13] = male, CD-1, mouse, in vivo, ip, 7 days
# Method: 7-day-multiple dosing MTD in mice • a. CD-1 mice, male, 24-26 gram • b. Dosing at 0, 50, 100, 200 mg/kg/d ip • c. 6 mice per group • d. Blood and organs will be collected 2 hr after last dosing on Day 7 for hematology
# as §7
# [14] = both, Sprague Dawley, rat, in vivo, iv, 8 days
# Method: Single dosing MTD in rats • a. Sprague Dawley, male and female, 240-260 gram • b. Dosing at 0, 25, 50, 100, 200 mg/kg, iv infusion 5 min • c. 6 rats per group (3 male and 3 female)
# as §7
# [15] = both, Sprague Dawley, rat, in vivo, iv, 7 days
# Method: 4. 7-day multiple dosing MTD in rats • a. Sprague Dawley, male and female, 220-250 gram • b. Dose, 25, 50, 100, 200 mg/kg/d) iv infusion 5 min • c. 6 per group (3 male and 3 female) • d. Blood and organs will be collected 2 hr after last dosing on Day 7 for hematology Compound Preparation.
# as §7
# Breast_MCF7 = assay: Cell proliferation assay (ATPlite); assay type: cell-based; conditions: Homo sapiens, MCF7; MCF-7, Breast adenocarcinoma (Table D); read-out: IC50 in cancer cell line
# Method: as §1, §2
# Breast_SkBr3 = assay: Cell proliferation assay (ATPlite); assay type: cell-based; conditions: Homo sapiens, SK-BR-3; SKBr3, Breast carcinoma (Table D); read-out: IC50 in cancer cell line
# Method: as §1, §2
# Colon_HCT116 = assay: Cell proliferation assay (ATPlite); assay type: cell-based; conditions: Homo sapiens, HCT-116; HCT116, Colon cancer (Table D); read-out: IC50 in cancer cell line
# Method: as §1, §2
# [16] = system: MDA-MB-231 Breast adenocarcinoma; assay: Cell proliferation assay (ATPlite); assay type: cell-based; conditions: Homo sapiens; MDA-MB-231, Breast adenocarcinoma (Table D); read-out: IC50 in cancer cell line
# Method: as §1, §2
# Prostate_PC3 = assay: Cell proliferation assay (ATPlite); assay type: cell-based; conditions: PC-3, Prostate adenocarcinoma (Table D); read-out: IC50 in cancer cell line
# Method: as §1, §2
# [17] = pH of salt solution in 30% CAPTISOL; assay type: physicochemical; conditions: salt in 30% CAPTISOL
# Method: Sodium, hydrochloride, citrate and tartrate salts of a test compound of Formula I were prepared in 30% CAPTISOL® solutions and were studied for the following:
# T1 sequence (P00533 672-1210): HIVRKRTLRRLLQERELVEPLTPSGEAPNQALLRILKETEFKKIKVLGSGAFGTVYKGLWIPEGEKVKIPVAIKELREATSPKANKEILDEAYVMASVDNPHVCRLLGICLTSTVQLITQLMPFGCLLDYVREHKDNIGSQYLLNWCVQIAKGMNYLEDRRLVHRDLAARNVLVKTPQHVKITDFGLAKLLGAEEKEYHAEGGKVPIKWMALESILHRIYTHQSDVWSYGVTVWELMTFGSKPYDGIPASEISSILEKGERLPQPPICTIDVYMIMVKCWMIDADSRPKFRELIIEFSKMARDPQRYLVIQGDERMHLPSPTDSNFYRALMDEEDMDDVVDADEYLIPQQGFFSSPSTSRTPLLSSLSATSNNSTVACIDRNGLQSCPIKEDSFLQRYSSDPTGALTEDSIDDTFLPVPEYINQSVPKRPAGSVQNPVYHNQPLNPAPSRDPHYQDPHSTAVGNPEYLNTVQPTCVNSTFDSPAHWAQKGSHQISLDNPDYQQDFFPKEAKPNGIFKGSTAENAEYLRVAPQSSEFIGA
molecule,measurement,setting,value
"COc1cc2ncnc(Nc3ccc(F)c(Cl)c3)c2cc1OCCCCCCC(=O)NO [Compound 6, 7-(4-(3-Chloro-4-fluorophenylamino)-7-methoxyquinazolin-6-yloxy)-N-hydroxyheptanamide]",IC50,HDAC,< 100 nM
same,activity in HDAC enzyme assay compared with SAHA,HDAC; FIG. 1,more active than erlotinib and SAHA
same,activity in EGFR enzyme assay compared with erlotinib,[1],more active than erlotinib and SAHA
"C#Cc1cccc(Nc2ncnc3cc(OC)c(OCCCCCCC(=O)NO)cc23)c1 [Compound 12, 7-(4-(3-ethynylphenylamino)-7-methoxyquinazolin-6-yloxy)-N-hydroxyheptanamide]",activity in EGFR enzyme assay compared with erlotinib,[1],more active than erlotinib and SAHA
same,IC50,Caki-1 Renal carcinoma,≤ 50 nM
same,cell apoptosis measured by increased Caspase 3&7 activity,[2],4-11 times
same,inhibition of histone acetylation compared with SAHA,[3],improvement in inhibition of histone acetylation
same,inhibition of EGFR phosphorylation compared with Erlotinib,[4],improvement in inhibition of histone acetylation and EGFR phosphorylation
same,"anti-proliferative activity compared with Erlotinib, SAHA and their combination",[5],more active than Erlotinib and SAHA
same,stability of diluted solution at room temperature,"[6]; 60 mg/ml compound 12 with tartaric acid (1.3 eq) in 30% CAPTISOL, diluted in 1x water and 2x D5W",> 12 h
same,stability of solution,[7],stable at room temperature
same,dose proportionality of concentration,"[8]; 20 and 60 mg/kg, iv and ip",dose proportional when administered intravenously but not intraperitoneally
same,half-life in tissue versus plasma,"[8]; lung, colon, plasma",greater than that in plasma
same,dose proportionality of plasma concentration,[9],proportional to the dose
same,concentration in plasma in 4 hours,[10],less than 10 mg/ml
same,effect on tumor growth / tumor size,A549 NSCLC Xenograft,attenuated tumor growth
same,attenuation of tumor growth,[11],greater attenuation of tumor growth than either erlotinib (po) or vehicle
same,dose without significant change in body weight,[12],up to 200 mg/kg
same,dose without significant change in body weight,[13],up to 100 mg/kg
same,dose without significant change in body weight,[14],up to 200 mg/kg
same,dose without significant change in body weight or food consumption,[15],up to 100 mg/kg
"COc1cc2ncnc(NCc3ccc(F)c(F)c3)c2cc1OCCCCCCC(=O)NO [Compound 87, 7-(4-(3,4-difluorobenzylamino)-7-methoxyquinazolin-6-yloxy)-N-hydroxyheptanamide]",IC50,HDAC,< 100 nM
"COc1cc2ncnc(NCc3ccc(F)c(Cl)c3)c2cc1OCCCCCCC(=O)NO [Compound 88, 7-(4-(3-chloro-4-fluorobenzylamino)-7-methoxyquinazolin-6-yloxy)-N-hydroxyheptanamide]",IC50,HDAC,< 100 nM
"COc1cc2ncnc(NCc3cccc(Br)c3)c2cc1OCCCCCCC(=O)NO [Compound 89, 7-(4-(3-bromobenzylamino)-7-methoxyquinazolin-6-yloxy)-N-hydroxyheptanamide]",IC50,HDAC,< 100 nM
C#Cc1cccc(CNc2ncnc3cc(OC)c(OCCCCCCC(=O)NO)cc23)c1 [Compound 90],IC50,HDAC,< 100 nM
COc1cc2ncnc(Nc3ccc(F)c(Cl)c3)c2cc1OCCOc1ccc(CC(=O)NO)cc1 [Compound 91],IC50,HDAC,1000 to 10000 nM
COc1cc2ncnc(Nc3ccc(F)c(Cl)c3)c2cc1NC(=O)Nc1ccc(C(=O)NO)cc1 [Compound 93],IC50,HDAC,1000 to 10000 nM
COc1cc2ncnc(Nc3ccc(F)c(Cl)c3)c2cc1OCCCCCCC(=O)N(C)O [Compound 94],IC50,HDAC,> 10000 nM
C#Cc1cccc(Nc2ncnc3cc(OCCOC)c(OCCOC)cc23)c1 [Erlotinib],IC50,Breast_MCF7,≤ 5000 nM
same,IC50,Breast_SkBr3,≤ 5000 nM
same,IC50,Colon_HCT116,≤ 5000 nM
same,IC50,[16],≤ 5000 nM
same,IC50,Prostate_PC3,≤ 5000 nM
same,effect on tumor growth / tumor size,A549 NSCLC Xenograft,did not significantly affect tumor size as compared to control
C#Cc1cccc(Nc2ncnc3cc(OC)c(OCCCCCCC(=O)NO)cc23)c1 [HCl],pH,[17],2-3
same,Dilution with D5W,[6],>10x
same,Chemical stability in diluted solution,[6],>12 h
C#Cc1cccc(Nc2ncnc3cc(OC)c(OCCCCCCC(=O)NO)cc23)c1 [Sodium],pH,[17],10-11
same,Dilution with D5W,[6],>10x
same,Chemical stability in diluted solution,[6],>12 h
Citric Acid,Dilution with D5W,[6],>10x
same,Chemical stability in diluted solution,[6],>12 h
